# Results: article PMC10325900, “A conserved motif in the disordered linker of human MLH1 is vital for DNA mismatch repair and its function is diminished by a cancer family mutation” (Nucleic Acids Research, 2023)
# “Also recorded” adds a separate entry of the source. No end group written: not given here.
# How the values were obtained:
# [1] = tested on: MLH1 variant p.Arg385Pro and PMS2; assay: MMR complementation assay with peptide, MLH1 p.Arg385Pro variant; format: biochemical, human; settings: ConMot-32 at 0, 7.5, 18 and 75 μM
# Protocol: Mismatch repair activity was assessed as described in detail before ([79],[81]) (Supplementary Figure S3). […] Mismatched DNA plasmid substrate (Supplementary Figure S3) prepared according to previously published procedures ([81–83]) was added, and reactions in a final volume of 25 μl were incubated at 37°C for 15 min. Repair efficiency was scored by purifying the mismatched DNA plasmid from the reaction and assessing the fraction of homoduplex sequence by restriction digestion of the mismatched site using EcoRV. The substrate was additionally linearized with AseI.
# For complementation assays with peptide, the indicated peptide(s) were used at stock concentrations of 50 or 500 μM in HEPES–KOH 20 mM pH 7.6 and supplemented to the MMR reactions.
# In an identical way, we analyzed the effects of the ConMot peptide on MMR activity of the defective human MLH1 missense variant p.Arg385Pro (Figure 5).
# Figure 5. […] Several MMR assays were performed; a representative agarose gel is shown (top), and average MMR activity values and standard deviations of three independent experiments were calculated (bottom). […]
# In parallel, the single- strand nick is ligated. […] 40- 80% absolute repair, determined as signal intensities of the repair bands divided by sum of signal intensities of all plasmid bands, are optimally achieved and allow accurate determination of MMR activity of variants. […]
# [2] = 33 μM peptide, 20 mM Na-phosphate pH 7.2, 25–95°C, detection at 222 nm
# Protocol: For the CD analysis, 33 μM ConMot peptide was used in 20 mM Na-phosphate buffer pH 7.2, 20°C. Three scans were performed with 190–300 nm wavelength, using a 1 mm light path. A blank was measured with buffer. For the melting analysis, 33 μM ConMot peptide was used in 20 mM Na-phosphate buffer pH 7.2. Detection was at 222 nm, temperature was scanned from 25–95°C. A blank with buffer only was subtracted.
sequence,measurement,setting,value
SGSSDKVYAHQMVRTDSREQKLDAFLQPLSKP [ConMot-32],"peptide concentrations required for restoration of p.Arg385Pro variant, compared with ConMot-deletion variant",[1],identical peptide concentrations as with the ConMot-deletion variant
same,restoration of DNA mismatch repair activity of the p.Arg385Pro variant,"[1]; 37°C, 15 min, average of three independent experiments, listed as ConMot peptide",Restoration of MMR activity was again observed; also recorded: could be overcome
same,secondary structure formation by melting analysis,[2],Neither investigation provided evidence for secondary structure formation
